# Patent US20130171217A1, “ENZYMATIC PERACID GENERATION FOR USE IN SKIN CARE PRODUCTS” (E I DU PONT DE NEMOURS AND COMPANY, priority 2010, published 2013)
# Assays:
# [1] = Single fiber tensile strength test of hair after chemical treatment (NAIR, PAA, bleach creams, reductive solution, triacetin/H2O2)
# Source text: Since the quality and diameter of the hair samples are variables, hair sample pre-selection is used to achieve reasonable standard deviation in the tensile strength test. […] To prevent contamination, gloves were used while handing hair fiber samples.
# Plastic transfer pipette tubes were cut to 2^7/8 inches (approximately 7.3 cm) by cutting off the bulb end. A hair bundle with 7 to 20 hair strands was carefully inserted into the tube keeping the hair fibers together by taping one end together and attached to the outside top of the wider end of the transfer pipette. This also helped to keep the strands in place once in the tube.
# Solution/cream (200 μL) was added to a 2.0-mL microfuge tube. The hair sample was placed into tube by inserting the smaller end of transfer pipette inside tube with hair protruding out of the tip such that the hair strands formed a U shape and the free end of the strands hung loosely outside of the microfuge tube.
# After certain application, hair samples were dried and equilibrated in the temperature and humidity control room for at least 12 hr, preferably 24 hr, before tensile strength test.
# (§1) Hair samples were cut into pieces 4-inches in length. The denier number (liner mass density) of each hair fiber was measured by Textechno Vibromat Instrument (Textechno Herbert Stein GmbH & Co. KG; Germany). The hair fibers were tested according to ASTM D 3822-01 (“Tensile Properties of Single Textile Fibers”; ASTM International, West Conshohocken, Pa., 2001), on an Instron testing system (Instron Model 1122 Tester; Instron, Mass.) at about 70° F. (approximately 21° C.) and 65% relative humidity. The treated area of the hair sample was placed in the middle of the gauge and both ends were gripped on the test heads. Both fiber ends were attached on a piece of tape, respectively, for easy handling and gripping on the test heads. The test used 2-inch (5.1 cm) gauge length, […], and 1.2 inch/min (3 cm/min) pulling rate. The force-strain curve of the fiber was recorded during the test. The tenacity at maximum (gf/den) was calculated by dividing maximum force (gf) by denier number (den). Note that (gf/den)/11.33=Newtons/tex (N/tex).
# Tenacity at maximum (tensile strength) of each hair sample was used to compare the integrity of the hair sample. A lower value of the tenacity at maximum is indicative of an improved weakening efficacy. A commercial depilatory cream, NAIR® (an alkali/potassium thioglycolate-based hair removal product from Church and Dwight Co., Inc., Princeton, N.J.), was used to set a target level for hair weakening. Based on the NAIR® product instruction, the recommended treatment time is 3 min to 10 min. Therefore, the tenacity at maximum of a hair sample treated with NAIR® between 3 min to 10 min was used to determine the target level. During hair treatment, about 200 μL of NAIR® cream was added to a 2-mL microfuge tube and hair samples were soaked in the cream for 3, 5 and 10 min. Hair samples were then rinsed with tape water to remove all the cream and then were dried under a stream of N2. […] Therefore, the desired level of hair weakening efficacy was targeted in the range from 0.8 gf/den to 1.3 gf/den under similar testing conditions.
# Peracetic acid was added in 50 mM phosphate buffer to prepare solutions with different PAA concentrations at pH 6 and pH 8. A PAA solution (200 μL) was added to a 2-mL microfuge tube and hair samples were inserted for 2 hours. Hair samples were then rinsed with deionized water and dried under N2.
# […] […] The treatment was repeated for 7 times or 15 times, i.e., 4 hours and 8 hours of total exposure time, respectively.
# The same multiple treatment as in Example 3 was applied with two commercially available hydrogen peroxide-based bleaching creams (SALLY HANSEN® bleach cream for face and SALLY HANSEN® extra strength bleach cream for face & body; Del Laboratories, Inc., Uniondale, N.Y.) and 6 wt % hydrogen peroxide (H2O2) in a similar pH 8, 20% urea, phosphate solution. […]
# [2] = Wool removal from sheep pelt strips by PAA solutions; conditions: 15 wt % urea, pH 8
# Protocol: To evaluate the efficacy of PAA solution on removing the wool from a sheep pelt sample, the following experiment was carried out. Pelt strips (0.5 cm×3 cm) were cut and the wool fibers were trimmed to a length of 0.2 cm. Each solution (50 μL) was applied on separated pelt strip (half of the length treated and half of the length untreated). The pelt strip samples were allowed to stand for 10 min at room temperature ([…]). Excess liquid was removed by blotting and the samples were put inside a plastic tube for 30 min for further treatment and then washed with 50 μL of a 2% sodium lauryl ether sulfate (SLES) solution, rinsed with tap water (excess liquid was removed by blotting), and then dried under N2. The treatment was repeated until the wool fibers in treated area were all removed. Three different solutions were tested using this protocol, a) 0.6 wt % PAA, 15 wt % urea, with 0.5 wt % SLES in a pH 8, 50 mM phosphate buffer; b) 0.6 wt % PAA and 15 wt % urea in a pH 8, 50 mM phosphate buffer; c) 0.2 wt % PAA, 15 wt % urea, 0.5 wt % SLES in a pH 8, 50 mM phosphate buffer. At the 19th, 23rd, 24th application, respectively, the wool fibers on the samples treated with solution (a), (b) and (c) were completely removed. The addition of 0.5 wt % SLES seems to accelerate the wool removal process.
# [3] = Single fiber tensile strength and bleaching start after two-step enzymatic application; conditions: two-step with buffer rinse
# Protocol: as §1
# In a two-step application, the hair strands are first treated with perhydrolase solutions to allow the enzyme to bind hair. The hair strands are then dried or rinsed with buffer and dried. The rinse step is intended to remove excess unbound enzyme from the hair. The hair strands are soaked in triacetin and H2O2 solutions. The application is repeated for multiple times.
# One experiment was carried out with C277S-HC263 and untargeted T. maritima variant C277S using the following protocol: • 1. Enzyme solutions comprising 0.5 mg/mL enzyme in 50 mM phosphate buffer (pH 8) were made with or without 10 wt % urea. • 2. Seven (7) hair strands were soaked in 0.2 mL of an enzyme solution for 10 min and then dried under N2 without prior rinsing. • 3. The hair strands were then soaked in 0.2 mL of a pH 8 solution containing 100-mM triacetin and 250-mM H2O2 for 15 min, dried, then rinsed with DI water and then dried again. • 4. Steps 2-3 were repeated up to 15 times.
# Another experiment was carried out with C277S-HC263 (SEQ ID NO: 288), CPAH-HC263 (SEQ ID NO: 294), CPAH-HC1010 (SEQ ID NO: 295) and untargeted C277S using the following protocol: • 1. Enzyme solutions comprising 1.0 mg/mL enzyme in 50 mM phosphate buffer (pH 6) were prepared. For solutions containing two enzymes, the concentration of each enzyme was approximately 0.5 mg/mL. • 2. Seven (7) hair strands were soaked in 0.2 mL of an enzyme solution for 10 min, rinsed with 50 mM phosphate buffer (pH 6), and then dried under N2. • 3. The dried hair strands were then soaked into 0.2 mL of 50 mM phosphate buffer solution (pH 8) comprising 100 mM triacetin and 250 mM H2O2 for 15 min, dried, then rinsed with DI water and then dried again. • 4.
# [4] = Impact of additives on perhydrolase activity, PAA indicator strip; type: biochemical; conditions: glycerin, ethanol, sorbitol, polyethylene glycol or propylene glycol additive
# Protocol: A peracetic acid indicator strip with detection range from 75 to 400 ppm was used to study the impact of additives on the perhydrolase activity of a perhydrolase. When the PAA concentration is at least 0.2 wt %, the dark color generated on the indicator strip will turn back to original white color over time.
# A first solution (“solution A”) was prepared using 50 mM phosphate buffer (pH 8) and 10 wt % of one of the following additives: glycerin, ethanol, sorbitol, polyethylene glycol, propylene glycol in, respectively.
# A second solution (“solution B”) was prepared by mixing 30% H2O2 and 50 mM phosphate buffer (pH 8) whereby the final concentration of H2O2 was 500 mM.
# A third solution (“solution C”) was prepared comprising of CPAH-HC1010 (SEQ ID NO: 295) (0.2 mg/mL), triacetin (200 mM), 50 mM phosphate buffer (pH 8), and solution A (5 wt % additive). Immediately, added solution B in a 1:1 volume ratio. After 1 to 5 min, a 30-μL sample of the resulting solution was removed and immediately placed on a PAA indicator strip.
# This process was repeated for each of the additives listed above.
molecule,measurement,setting,value
"CC(=O)OO [PAA, peracetic acid]",Ten. @ Max,"[1]; [PAA] 0.01 wt % then reductive solution (5 wt % potassium thioglycolate, pH 7.5), 20 min × 16, urea 10 wt %",1.2 gf/den
same,Ten. @ Max,"[1]; [PAA] 0.01 wt %, 20 min × 16, urea 10 wt %, pH 8",1.7 gf/den
same,Ten. @ Max,"[1]; [PAA] 0.02 wt % then reductive solution, 20 min × 16, urea 10 wt %",1.6 gf/den
same,Ten. @ Max,"[1]; [PAA] 0.02 wt %, 20 min × 16, urea 10 wt %, pH 8",1.7 gf/den
same,Ten. @ Max,"[1]; [PAA] 0.02 wt %, soaking 2 hr, pH 6",1.7 gf/den
same,Ten. @ Max,"[1]; [PAA] 0.02 wt %, soaking 2 hr, urea 0 wt %",1.6 gf/den
same,Ten. @ Max,"[1]; [PAA] 0.02 wt %, soaking 4 hr, urea 20 wt %",1.7 gf/den
same,Ten. @ Max,"[1]; [PAA] 0.05 wt % then reductive solution, 20 min × 16, urea 10 wt %",0.8 gf/den
same,Ten. @ Max,"[1]; [PAA] 0.05 wt %, 20 min × 16, urea 10 wt %, pH 8",1.5 gf/den
same,Ten. @ Max,"[1]; [PAA] 0.10 wt % then reductive solution, 20 min × 8, urea 10 wt %",0.9 gf/den
same,Ten. @ Max,"[1]; [PAA] 0.10 wt %, 20 min × 16, urea 10 wt %, pH 8",1.1 gf/den
same,Ten. @ Max,"[1]; [PAA] 0.20 wt % then reductive solution, 20 min × 8, urea 10 wt %",0.7 gf/den
same,Ten. @ Max,"[1]; [PAA] 0.20 wt %, 20 min × 16, urea 10 wt %, pH 8",0.7 gf/den
same,Ten. @ Max,"[1]; [PAA] 0.20 wt %, 30 min × 8, urea 20 wt %, pH 8",1.3 gf/den
same,Ten. @ Max,"[1]; [PAA] 0.20 wt %, 30 min × 16, urea 20 wt %, pH 8",0.6 gf/den
same,Ten. @ Max,"[1]; [PAA] 0.20 wt %, soaking 2 hr, pH 6",1.5 gf/den
same,Ten. @ Max,"[1]; [PAA] 0.20 wt %, soaking 2 hr, pH 8",1.6 gf/den
same,Ten. @ Max,"[1]; [PAA] 0.20 wt %, soaking 2 hr, urea 20 wt %",1.6 gf/den
same,Ten. @ Max,"[1]; [PAA] 0.20 wt %, soaking 4 hr, urea 20 wt %",1.5 gf/den
same,Ten. @ Max,"[1]; [PAA] 0.60 wt %, 30 min × 8, urea 20 wt %, pH 8",0.4 gf/den
same,Ten. @ Max (hair integrity),"[1]; [PAA] 0.60 wt %, 30 min × 16, urea 20 wt %, pH 8",NA: Not applicable as all hair strains in sample 6 lost their integrity before the 16th application and could not be analyzed.
same,Ten. @ Max,"[1]; [PAA] 0.60 wt %, soaking 2 hr, pH 6",1.3 gf/den
same,Ten. @ Max,"[1]; [PAA] 0.60 wt %, soaking 2 hr, pH 8",1.3 gf/den
same,Ten. @ Max,"[1]; [PAA] 0.60 wt %, soaking 2 hr, urea 0 wt %",1.3 gf/den
same,Ten. @ Max,"[1]; [PAA] 0.60 wt %, soaking 2 hr, urea 20 wt %",1.4 gf/den
same,Ten. @ Max,"[1]; [PAA] 0.60 wt %, soaking 4 hr, urea 0 wt %",1.2 gf/den
same,Ten. @ Max,"[1]; [PAA] 0.60 wt %, soaking 4 hr, urea 20 wt %",0.8 gf/den
same,Ten. @ Max,"[1]; [PAA] 2.00 wt %, soaking 2 hr, pH 6",0.9 gf/den
same,Ten. @ Max,"[1]; [PAA] 2.00 wt %, soaking 2 hr, pH 8",0.8 gf/den
same,effective PAA concentration,[1]; longer soaking time and 20% urea,about 0.6 wt %
same,effective PAA concentration to achieve target hair weakening level,"[1]; multiple treatments up to 16 times, 20 wt % urea",0.2 wt %
same,PAA concentration needed to achieve the targeted hair weakening level,"[1]; single application, 2 hours, pH 6 and pH 8",greater than 0.6 wt %
same,application at which the wool fibers were completely removed,"[2]; solution (a): 0.6 wt % PAA, 0.5 wt % SLES",19 application
same,application at which the wool fibers were completely removed,[2]; solution (b): 0.6 wt % PAA,23 application
same,application at which the wool fibers were completely removed,"[2]; solution (c): 0.2 wt % PAA, 0.5 wt % SLES",24 application
CPAH-HC1010: fusion peptide C277S-HC1010 further comprising a D128G substitution (protein) MAFFDLPLEELKKYRPERYEEKDFDEFWEETLAESEKFPLDPVFERMESHLKTVEAYDVTFSGYRGQRIKGWLLVPKLEEEKLPCVVQYIGYNGGRGFPHDWLFWPSMGYICFVMDTRGQGSGWLKGGTPDYPEGPVDPQYPGFMTRGILDPRTYYYRRVFTDAVRAVEAAASFPQVDQERIVIAGGSQGGGIALAVSALSKKAKALLCDVPFLCHFRRAVQLVDTHPYAEITNFLKTHRDKEEIVFRTLSYFDGVNFAARAKIPALFSVGLMDNISPPSTVFAAYNYYAGPKEIRIYPYNNHEGGGSFQAVEQVKFLKKLFEKGGPGSGGAGSPGSAGGPGSAQSQLPDKHSGLHERAPQRYGSGTAEIQSSKNPNPHPQRSWTNGSGHNHMQERYTDPQHSPSVNGLGSGHDHKNQKETHQRHAASSHHHHHH,Bleaching Start,[3]; 1.0 mg/mL enzyme pH 6,12th
same,Tenacity @ max,"[3]; 1.0 mg/mL enzyme pH 6, 100 mM triacetin, 250 mM H2O2, up to 13 repeats",1.2 gf/den
same,perhydrolase activity (PAA by indicator strip) in presence of additives,[4],≥ 2000 ppm
